Assay results reported in patent publication US7585859B2, “PDE4B inhibitors and uses therefor” (Plexxikon, Inc., priority 2004, dated 2009).
pIC50: −log10 of the molar value. Where two headings read alike, the source gives them in different places.

Columns and labels:
Assay type in all cases: biochemical
[1] = target: T1, PDE4B: The catalytic domain of human PDE4B from S152-S528 (Homo sapiens, UniProt Q07343); assay: PDE4 IC50 determination by Scintillation Proximity Assay, PDE4B
T1 construct: His6 (N); thrombin cleavage site (N); made in house; host or cells: E. coli
T1 sequence (Q07343 with tags, fused parts or gaps): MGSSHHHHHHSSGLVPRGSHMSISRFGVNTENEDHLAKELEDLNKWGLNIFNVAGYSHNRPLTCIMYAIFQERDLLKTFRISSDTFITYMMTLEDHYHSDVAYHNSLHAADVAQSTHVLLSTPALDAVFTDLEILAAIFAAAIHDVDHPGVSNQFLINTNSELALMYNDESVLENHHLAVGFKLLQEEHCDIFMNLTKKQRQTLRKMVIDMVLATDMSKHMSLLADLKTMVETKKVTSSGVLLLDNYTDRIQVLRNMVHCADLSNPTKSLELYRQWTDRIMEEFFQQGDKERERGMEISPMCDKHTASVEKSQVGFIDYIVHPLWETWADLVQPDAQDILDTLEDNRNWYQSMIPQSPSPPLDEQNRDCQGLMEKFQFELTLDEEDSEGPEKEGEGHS
How it was run: (§1)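 Hydrolysis of [^3H]cAMP measured by SPA with yttrium silicate beads, which bind the [^3H]AMP product strongly and cAMP weakly. Enzyme at 80 ng/ml for PDE4B, 4 ng/ml for PDE4D; 30 min at 30°.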

PDE4D = target: T2, PDE4D (Homo sapiens, UniProt Q08499); assay: PDE4 IC50 determination by Scintillation Proximity Assay, PDE4D
T2 construct: PDE4D: The catalytic domain of human PDE4B from S3 16-V692; His6 (N); thrombin cleavage site (N); made in house; host or cells: E. coli
T2 sequence (Q08499 380-756): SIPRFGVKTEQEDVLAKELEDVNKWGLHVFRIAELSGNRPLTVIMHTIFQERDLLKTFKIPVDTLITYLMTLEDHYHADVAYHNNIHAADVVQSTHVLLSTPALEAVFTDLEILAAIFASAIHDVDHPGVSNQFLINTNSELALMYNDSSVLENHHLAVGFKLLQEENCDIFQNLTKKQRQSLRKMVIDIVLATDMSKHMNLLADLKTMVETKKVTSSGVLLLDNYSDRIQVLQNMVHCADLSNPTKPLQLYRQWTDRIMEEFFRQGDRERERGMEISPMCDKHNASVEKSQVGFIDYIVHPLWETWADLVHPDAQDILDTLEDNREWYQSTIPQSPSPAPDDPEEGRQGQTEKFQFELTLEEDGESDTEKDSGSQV
How it was run: as §1

[2] = target: T3, full-length human PDE4B2 isozyme (Homo sapiens, UniProt Q07343); assay: PDE4 IC50 determination by Scintillation Proximity Assay, PDE4B2
T3 construct: The full-length human PDE4B2 isozyme; His6 (N); TEV cleavage site (N); made in house; host or cells: baculovirus infected insect cells (unpurified lysate)
T3 sequence (Q07343 1-564 isoform Q07343-2): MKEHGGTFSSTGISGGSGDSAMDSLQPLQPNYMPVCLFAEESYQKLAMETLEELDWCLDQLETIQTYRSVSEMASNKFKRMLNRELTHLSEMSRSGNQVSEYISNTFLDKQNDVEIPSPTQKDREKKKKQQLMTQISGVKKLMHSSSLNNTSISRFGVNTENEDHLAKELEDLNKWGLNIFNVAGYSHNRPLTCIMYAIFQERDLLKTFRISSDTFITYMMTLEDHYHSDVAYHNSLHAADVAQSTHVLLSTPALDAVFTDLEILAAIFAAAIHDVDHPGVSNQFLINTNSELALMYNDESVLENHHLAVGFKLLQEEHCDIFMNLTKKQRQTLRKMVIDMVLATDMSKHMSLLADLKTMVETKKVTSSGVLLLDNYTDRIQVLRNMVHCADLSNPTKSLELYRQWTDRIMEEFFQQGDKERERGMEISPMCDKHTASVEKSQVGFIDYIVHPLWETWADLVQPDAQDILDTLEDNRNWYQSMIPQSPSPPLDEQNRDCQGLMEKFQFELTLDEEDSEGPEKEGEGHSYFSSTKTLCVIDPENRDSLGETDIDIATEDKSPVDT
Method: (§2) IC50s were determined by Scintillation Proximity Assay (SPA). The principle of the assay is based on the fact that cAMP, the PDE4 substrate, binds weakly to Yittrium Silicate SPA beads, whereas AMP, the product of PDE4 hydrolysis binds strongly. Thus, the extent of PDE4 hydrolysis of a sample of [^3H]cAMP can be measured because only the
(§3) [^3H]AMP produced by PDE4 hydrolysis will bind to the SPA beads and produce a scintillation signal.
(§4) PDE4 enzymes used for IC50 assays were:
PDE4B2: The full-length human PDE4B2 isozyme with an N-terminal His6 tag (SEQ ID NO: 18) and TEV cleavage site expressed in baculovirus infected insect cells. The enzyme was not purified from the cell lysates, so enzyme concentrations were not determined. Enzyme was stored in 50% glycerol at −20°.
(§5) Compounds tested (see Tables 3B, 4B and 5A for compounds and results) were 3-fold serially diluted 11 times in DMSO from a starting concentration of 4 mM or 40 μM, depending on compound potency. 1 μl of each dilution was transferred into duplicate wells of a white polystyrene 384-well assay plate (Coming #3705). In addition to the compound dilutions, each assay plate contained control wells with 1 μl of DMSO (to define 0% enzyme inhibition) or 1 μl of 200 μM roflumilast (to define 100% enzyme inhibition). Using a Beckman FX robot, 10 μl of [^3H] cAMP (Amersham TRK559) at 2 mCi/ml in assay buffer (50 mM Tris, pH 7.5; 8.3 mM MgCl; 1.7 mM EGTA; 0.01% BSA) was transferred to each assay well. Next, 10 μl of PDE4 enzyme in assay buffer was added and the plates were shaken for 30 s. at 1000 rpm to start the cAMP hydrolysis reaction. The concentrations of enzyme used were: PDE4B, 80 ng/ml; PDE4D, 4 ng/ml; PDE4B2, 2.5 μl of 50% glycerol stock/ml; PDE4D5 0.083 μl of 50% glycerol stock/ml. Assay plates were covered and incubated for 30 min. at 30°. Reactions were stopped by robotic addition of 10 μl of 5 mg/ml SPA beads (Amersham RPNQ0013) in 18 mM ZnSO4. The assay plates were covered with clear plastic film, centrifuged for 1 min. at 1000 RPM to settle the SPA beads, and counted using a Wallac TriLux scintillation counter. IC50's were calculated from the raw assay data by non-linear regression curve fitting using the Assay Explorer software package from MDL.

[3] = target: T4, full-length human PDE4D5 isozyme (Homo sapiens, UniProt Q08499); assay: PDE4 IC50 determination by Scintillation Proximity Assay, PDE4D5; conditions: Table 1B, Formula I compounds; read-out: IC50 PDE4D5
T4 construct: The full-length human PDE4D5 isozyme; His6 (N); TEV cleavage site (N); made in house; host or cells: baculovirus infected insect cells (unpurified lysate)
T4 sequence (Q08499 1-745 isoform Q08499-6): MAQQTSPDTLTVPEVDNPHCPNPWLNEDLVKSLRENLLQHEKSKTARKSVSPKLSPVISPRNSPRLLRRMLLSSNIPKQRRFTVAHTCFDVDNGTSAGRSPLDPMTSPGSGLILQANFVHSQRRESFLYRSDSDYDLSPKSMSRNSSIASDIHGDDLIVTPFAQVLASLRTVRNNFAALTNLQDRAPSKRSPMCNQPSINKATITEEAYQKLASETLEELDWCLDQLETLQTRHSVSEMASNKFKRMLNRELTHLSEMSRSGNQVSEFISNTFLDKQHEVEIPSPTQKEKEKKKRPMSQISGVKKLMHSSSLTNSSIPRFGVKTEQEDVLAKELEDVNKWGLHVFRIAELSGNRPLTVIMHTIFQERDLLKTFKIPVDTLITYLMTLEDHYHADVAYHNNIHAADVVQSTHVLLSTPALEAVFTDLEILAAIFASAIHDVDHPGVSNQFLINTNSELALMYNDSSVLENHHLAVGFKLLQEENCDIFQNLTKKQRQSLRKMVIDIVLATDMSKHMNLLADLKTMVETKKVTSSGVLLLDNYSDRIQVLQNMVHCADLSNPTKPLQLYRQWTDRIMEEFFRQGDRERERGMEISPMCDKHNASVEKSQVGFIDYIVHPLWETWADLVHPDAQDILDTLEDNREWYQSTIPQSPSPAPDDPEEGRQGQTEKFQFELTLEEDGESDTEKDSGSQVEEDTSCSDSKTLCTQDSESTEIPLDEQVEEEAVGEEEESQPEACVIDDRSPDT
Method: as §2, §3, §4
PDE4D5: The full-length human PDE4D5 isozyme with an N-terminal His6 tag (SEQ ID NO: 18) and TEV cleavage site expressed in baculovirus infected insect cells. The enzyme was not purified from the cell lysates, so enzyme concentrations were not determined. Enzyme was stored in 50% glycerol at −20°.
as §5

[4] = Table 1B, Formula I compounds, read-out: IC50 PDE4B
[5] = Table 1B, Formula I compounds, read-out: IC50 PDE4D
[6] = Table 1B, Formula I compounds, read-out: IC50 PDE4B2
[7] = second part of Table 2B (2-23 to 2-103), column 3, column is PDE4B in first part, read-out: IC 50 vs. indicated assay h TNFα
[8] = second part of Table 2B (2-23 to 2-103), column 5, column is PDE4D in first part, read-out: IC 50 vs. indicated assay h TNFα
[9] = second part of Table 2B (2-23 to 2-103), column 4, column is PDE4B2 in first part, read-out: IC 50 vs. indicated assay h TNFα
[10] = Table 3A, Formula III compounds, read-out: IC50 PDE4B
[11] = Table 3A, Formula III compounds, read-out: IC50 PDE4D

Compound	pIC50 [1, 4]	pIC50 [3]	pIC50 [1, 10]	pIC50 (PDE4D; [11])	other results
CCOC(=O)c1c(Nc2ccccc2OC)sc(C(=O)c2ccc(Br)cc2)c1N [Compound 1-1, 4-Amino-5-(4-bromo-benzoyl)-2-(2-methoxy-phenylamino)-thiophene-3-carboxylic acid ethyl ester]	> 5.00	> 5.00	–	–	pIC50 (PDE4D; [5]): > 5.00; pIC50 [2, 6]: > 5.00
N#Cc1c(Nc2ccc(C(=O)NC3CCOC3=O)cc2)sc(C(=O)c2cc(-c3ccccc3)no2)c1N (centres unmarked) [Compound 1-142, 4-[4-Amino-3-cyano-5-(3-phenyl-isoxazole-5-carbonyl)-thiophen-2-ylamino]-N-(2-oxo-tetrahydro-furan-3-yl)-benzamide]	> 5.00	–	–	–	pIC50 (PDE4D; [5]): > 5.00; pIC50 [2, 6]: > 5.00
COc1ccc(Nc2sc(C(=O)c3cc(-c4ccc(Cl)cc4Cl)no3)c(N)c2C#N)cc1 [Compound 1-164, 4-Amino-5-[3-(2,4-dichloro-phenyl)-isoxazole-5-carbonyl]-2-(4-methoxy-phenylamino)-thiophene-3-carbonitrile]	> 5.00	< 5.00	–	–	pIC50 (PDE4D; [5]): > 5.00
CC(C)NC(=O)c1cc(C(=O)c2sc(NC3CCCC3)c(C#N)c2N)on1 [Compound 1-189, 5-(3-Amino-4-cyano-5-cyclopentylamino-thiophene-2-carbonyl)-isoxazole-3-carboxylic acid isopropylamide]	> 5.00	> 5.00	–	–	pIC50 (PDE4D; [5]): > 5.00
N#Cc1c(NC2CCCC2)sc(C(=O)c2cc(C(=O)NC3CC3)no2)c1N [Compound 1-190, 5-(3-Amino-4-cyano-5-cyclopentylamino-thiophene-2-carbonyl)-isoxazole-3-carboxylic acid cyclopropylamide]	> 5.00	> 5.00	–	–	pIC50 (PDE4D; [5]): > 5.00
N#Cc1c(Nc2ccc(Oc3ccccc3)cc2)sc(C(=O)C2CCCC2)c1N [Compound 1-195, 4-Amino-5-cyclopentanecarbonyl-2-(4-phenoxy-phenylamino)-thiophene-3-carbonitrile]	> 5.00	> 5.00	–	–	–
Nc1c(C(=O)c2cc(-c3ccccc3)no2)sc(NC2CCCC2)c1C(=O)O [Compound 1-237, 4-Amino-2-cyclopentylamino-5-(3-phenyl-isoxazole-5-carbonyl)-thiophene-3-carboxylic acid]	> 5.00	> 5.00	–	–	pIC50 [2, 6]: > 5.00
Cc1c(Nc2ccccc2)sc(C(=O)c2ccc(Cl)cc2)c1N [Compound 1-238, (3-Amino-4-methyl-5-phenylamino-thiophen-2-yl)-(4-chloro-phenyl)-methanone]	> 5.00	> 5.00	–	–	pIC50 [2, 6]: > 5.00
Cc1c(Nc2ccc(Oc3ccccc3)cc2)sc(C(=O)c2ccccc2)c1N [Compound 1-239, [3-Amino-4-methyl-5-(4-phenoxy-phenylamino)-thiophen-2-yl]-phenyl-methanone]	> 5.00	< 5.00	–	–	pIC50 [2, 6]: < 5.00
CCc1c(Nc2ccc(Oc3ccccc3)cc2)sc(C(=O)c2ccccc2)c1N [Compound 1-243, [3-Amino-5-ethyl-5-(4-phenoxy-phenylamino)-thiophen-2-yl]-phenyl-methanone]	> 5.00	< 5.00	–	–	pIC50 [2, 6]: > 5.00
CC(C)C(C)Nc1sc(C(=O)c2cc(-c3ccc(Cl)c(Cl)c3)no2)c(N)c1C#N (centres unmarked) [Compound 1-246, 4-Amino-5-[3-(3,4-dichloro-phenyl)-isoxazole-5-carbonyl]-2-(1,2-dimethyl-propylamino)-thiophene-3-carbonitrile]	> 5.00	< 5.00	–	–	pIC50 (PDE4D; [5]): < 5.00
Nc1nc(Nc2c(Cl)cccc2Cl)sc1C(=O)c1ccccc1 [Compound 2-30, [4-Amino-2-(2,6-dichloro-phenylamino)-thiazol-5-yl]-phenyl-methanone]	–	–	–	–	pIC50 [1, 7]: > 5.00; pIC50 (PDE4D; [8]): > 5.00; pIC50 [2, 9]: > 5.00
Nc1nc(Nc2ccc(Oc3ccccc3)cc2)sc1C(=O)c1ccccc1 [Compound 2-67, [4-Amino-2-(4-phenoxy-phenylamino)-thiazol-5-yl]-phenyl-methanone]	–	–	–	–	pIC50 [1, 7]: > 5.00; pIC50 [2, 9]: > 5.00
Nc1nc(Nc2ccc(Cl)cc2)sc1C(=O)C1CCCC1 [Compound 2-92, [4-Amino-2-(4-chloro-phenylamino)-thiazol-5-yl]-cyclopentyl-methanone]	–	–	–	–	pIC50 [1, 7]: > 5.00; pIC50 (PDE4D; [8]): > 5.00; pIC50 [2, 9]: > 5.00
Cc1ccc(S(=O)(=O)Nc2ccc(Br)c3cccnc23)cc1 [Compound 3-47, N-(5-Bromo-quinolin-8-yl)-4-methyl-benzenesulfonamide]	–	–	< 5.00	< 5.00	–
COc1cc(NS(=O)(=O)c2ccc(C)cc2)c2ncccc2c1 [Compound 3-48, N-(6-Methoxy-quinolin-8-yl)-4-methyl-benzenesulfonamide]	–	–	< 5.00	< 5.00	–
COc1cc(NS(=O)(=O)c2cc(F)ccc2C)c2ncccc2c1 [Compound 3-49, 5-Fluoro-N-(6-methoxy-quinolin-8-yl)-2-methyl-benzenesulfonamide]	–	–	< 5.00	< 5.00	–
COc1ccc(OC)c(S(=O)(=O)Nc2cc(OC)cc3cccnc23)c1 [Compound 3-51, 2,5-Dimethoxy-N-(6-methoxy-quinolin-8-yl)-benzenesulfonamide]	–	–	< 5.00	< 5.00	–
COc1cc(NS(=O)(=O)c2ccc(C#N)cc2)c2ncccc2c1 [Compound 3-52, 4-Cyano-N-(6-methoxy-quinolin-8-yl)-benzenesulfonamide]	–	–	< 5.00	< 5.00	–
COc1ccc(S(=O)(=O)Nc2cc(OC)cc3cccnc23)cc1 [Compound 3-53, 4-Methoxy-N-(6-methoxy-quinolin-8-yl)-benzenesulfonamide]	–	–	< 5.00	< 5.00	–
COc1cc(NS(=O)(=O)Cc2ccccc2)c2ncccc2c1 [Compound 3-54, N-(6-Methoxy-quinolin-8-yl)-C-phenyl-methanesulfonamide]	–	–	< 5.00	< 5.00	–
COc1cc(NS(=O)(=O)c2ccc(F)cc2)c2ncccc2c1 [Compound 3-55, 4-Fluoro-N-(6-methoxy-quinolin-8-yl)-benzenesulfonamide]	–	–	< 5.00	< 5.00	–
COc1cc(NS(=O)(=O)c2cccc(F)c2)c2ncccc2c1 [Compound 3-56, 3-Fluoro-N-(6-methoxy-quinolin-8-yl)-benzenesulfonamide]	–	–	< 5.00	< 5.00	–
COc1cc(NS(=O)(=O)c2ccccc2C)c2ncccc2c1 [Compound 3-57, N-(6-Methoxy-quinolin-8-yl)-2-methyl-benzenesulfonamide]	–	–	< 5.00	< 5.00	–
COc1cc(NS(=O)(=O)c2cc(C)ccc2OC)c2ncccc2c1 [Compound 3-58, 2-Methoxy-N-(6-methoxy-quinolin-8-yl)-5-methyl-benzenesulfonamide]	–	–	< 5.00	< 5.00	–
Cc1nccc(-c2cccc(S(=O)(=O)Nc3cccc4cccnc34)c2)n1 [Compound 3-66, 3-(2-Methyl-pyrimidin-4-yl)-N-quinolin-8-yl-benzenesulfonamide]	–	–	> 5.00	> 5.00	–
